{
  "source": "patent US10814115B2",
  "about": "“Microneedle devices and uses thereof” (MASSACHUSETTS INSTITUTE OF TECHNOLOGY, priority 2011, dated 2020)",
  "key": {"[1]": {"details": "cited from earlier work"}, "[2]": {"experiment": "Visualization study: dye injection into 1.5% porcine gelatin with the microneedle prototype device", "details": "0.025% dye", "description": "Using porcine gelatin, the effects of a microneedle prototype device was evaluated. Specifically, porcine gelatin was prepared at a concentration of 1.5% to mimic the density of gastrointestinal tissue. The gelatin provided the added benefit of allowing the application site to be visualized. A prototype device filled with a solution of 0.025% allura red dye was applied to the gel and a volume of 100-300 microliters of dye was injected. A second device lacking the needles was also used as a control.\nThis highlights the efficacy of the microneedle device in deeper tissue penetration of the model drug compared to simple diffusion (simulated by the control device shown in FIGS. 10 A and B)."}, "Yorkshire swine [3]": {"system": "Yorkshire swine", "details": "100 units in 10 ml saline enema", "quoted_text": "In order to evaluate the efficacy of abrasion and drug delivery a Yorkshire swine animal 70 kg in weight was fasted overnight. The animal was sedated and a central venous line was placed for frequent blood sampling. The rectum was cleansed with a tap water enema and an abrasion created in the rectal mucosa."}, "Yorkshire swine [4]": {"system": "Yorkshire swine", "description": "Yorkshire swine approximately 70 kg in weight were fasted overnight. The animal was sedated and a femoral venous catheter placed to enable frequent blood sampling for glucose monitoring. An endoscope was introduced orally or rectally depending on the tissue being accessed. Oral access for the stomach and small intestine and rectal access for the colon.\nGlucose levels were monitored by frequent blood sampling via the femoral venous catheter with the aid of a glucometer.\nThis was administered with the use of a Carr-Locke needle which is 500 μm in length and 514 μm in diameter. Frequent blood glucose monitoring was performed via the use of a central line (femoral venous catheter).\nTo further validate the delivery of biologics at different segment we further evaluated the use of microinjection in the duodenum (the first part of the small intestine). Here the pH ranges from 5.5-7 and there are a broader range of proteases.\nThis was again administered with the use of the Carr-Locke needle. Frequent blood glucose monitoring was performed via the use of a central line (femoral venous catheter).\nThis was administered with the use of the microneedle prototype shown previously. Frequent blood glucose monitoring was performed via the use of a central line (femoral venous catheter)."}},
  "note": "Read-outs that look alike come from different tables or passages of the source.",
  "data": [
    {"compound": "CCCC1O[C@@H]2C[C@H]3[C@@H]4CCC5=CC(=O)C=C[C@]5(C)[C@H]4[C@@H](O)C[C@]3(C)[C@]2(C(=O)CO)O1", "note": "(some centres unmarked) [Budesonide]", "values": [
      {"measurement": "Known Toxic Levels", "setting": "[1]; in vivo", "value": 3200, "unit": "mg/kg"}
    ]},
    {"compound": "CC[C@H](C)[C@@H]1NC(=O)[C@H](Cc2ccc(O)cc2)NC(=O)[C@@H](N)CSSC[C@@H](C(=O)N2CCC[C@H]2C(=O)N[C@@H](CC(C)C)C(=O)NCC(N)=O)NC(=O)[C@H](CC(N)=O)NC(=O)[C@H](CCC(N)=O)NC1=O", "note": "[Oxytocin]", "values": [
      {"measurement": "Known Toxic Levels", "setting": "[1]; in vivo", "value": ">10,000 units/kg"}
    ]},
    {"compound": "CC[C@H](C)[C@H](NC(=O)[C@@H]1CCCN1C(=O)CNC(=O)[C@H](Cc1ccccc1)NC(=O)[C@H](CC(N)=O)NC(=O)[C@H](CC(N)=O)NC(=O)[C@H](CO)NC(=O)[C@H](CO)NC(=O)[C@H](Cc1c[nH]cn1)NC(=O)[C@@H](NC(=O)[C@H](CC(C)C)NC(=O)[C@H](Cc1ccccc1)NC(=O)[C@H](CC(N)=O)NC(=O)[C@H](C)NC(=O)[C@H](CC(C)C)NC(=O)[C@H](CCCNC(=N)N)NC(=O)[C@H](CCC(N)=O)NC(=O)[C@@H](NC(=O)[C@H](C)NC(=O)[C@@H]1CSSC[C@H](NC(=O)[C@@H](N)CCCCN)C(=O)N[C@@H](CC(N)=O)C(=O)N[C@@H]([C@@H](C)O)C(=O)N[C@@H](C)C(=O)N[C@@H]([C@@H](C)O)C(=O)N1)[C@@H](C)O)C(C)C)C(=O)N[C@@H](CC(C)C)C(=O)N1CCC[C@H]1C(=O)N1CCC[C@H]1C(=O)N[C@H](C(=O)N[C@@H](CC(N)=O)C(=O)N[C@H](C(=O)NCC(=O)N[C@@H](CO)C(=O)N[C@@H](CC(N)=O)C(=O)N[C@H](C(=O)N[C@@H](Cc1ccc(O)cc1)C(N)=O)[C@@H](C)O)C(C)C)[C@@H](C)O", "note": "[Pramlintide]", "values": [
      {"measurement": "Known Toxic Levels", "setting": "[1]; in vivo", "value": ">600", "unit": "µg/kg/day"}
    ]},
    {"compound": "COc1cc(S(=O)(=O)[O-])c(C)cc1N=Nc1c(O)ccc2cc(S(=O)(=O)[O-])ccc12.[Na+].[Na+]", "note": "[allura red dye, allura red]", "values": [
      {"measurement": "Permeation of dye into gel matrix", "setting": "[2]; control device lacking needles", "value": "expulsion of the dye over the gel surface"},
      {"measurement": "Permeation of dye into gel matrix", "setting": "[2]; device with microneedles, 100-300 microliters", "value": "enabled permeation of the dye into the gel matrix"}
    ]},
    {"compound": "Erythropoietin", "values": [
      {"measurement": "Known Toxic Levels", "setting": "[1]; in vivo", "value": ">100,000 units"}
    ]},
    {"compound": "Etanercept", "values": [
      {"measurement": "Known Toxic Levels", "setting": "[1]; in vivo", "value": ">1000", "unit": "mg/animal"}
    ]},
    {"compound": "Infliximab", "values": [
      {"measurement": "Known Toxic Levels", "setting": "[1]; no direct toxic effect observed", "value": ">20", "unit": "mg/kg no"}
    ]},
    {"compound": "Rituximab", "values": [
      {"measurement": "Known Toxic Levels", "setting": "[1]; in vivo", "value": ">5", "unit": "g/animal"}
    ]},
    {"compound": "insulin aspart", "values": [
      {"measurement": "Glucose levels after insulin enema", "setting": "Yorkshire swine [3]; absence of an abrasion", "value": "did not decrease"},
      {"measurement": "Time to decrement in serum glucose after administration", "setting": "Yorkshire swine [3]; rectal mucosa with abrasion", "value": "20 to 30", "unit": "min"},
      {"measurement": "Serum glucose level after insulin enema", "setting": "Yorkshire swine [3]; rectal mucosa with abrasion, baseline glucose 80-82 mg/dL", "value": 60, "unit": "mg/dL"},
      {"measurement": "Hypoglycemic response (blood glucose versus post-injection time)", "setting": "Yorkshire swine [4]; colon, 20 units, microneedle prototype, one experiment", "value": "hypoglycemic response"},
      {"measurement": "Hypoglycemic response (blood glucose versus post-injection time)", "setting": "Yorkshire swine [4]; duodenum, 10 units, Carr-Locke needle, one experiment", "value": "hypoglycemic response"},
      {"measurement": "Time to hypoglycemic response after administration", "setting": "Yorkshire swine [4]; insulin injections, stomach, duodenum", "value": "20 to 40", "unit": "min"},
      {"measurement": "Hypoglycemic response", "setting": "Yorkshire swine [4]; insulin release without the use of needles (control, 10 units)", "value": "did not induce a hypoglycemic (low glucose) response"},
      {"measurement": "Hypoglycemic response (blood glucose versus post-injection time)", "setting": "Yorkshire swine [4]; stomach (transgastric), 10 units, Carr-Locke needle, 3 separate experiments", "value": "hypoglycemic response"}
    ]}
  ]
}
